Experimental data taken from publication PMC8286840, “Identifying SARS-CoV-2 antiviral compounds by screening for small molecule inhibitors of Nsp3 papain-like protease” (Biochemical Journal, 2021).
Where a name gives a salt, the structure may show the parent alone. Read-outs that look alike come from different tables or passages of the source.

Assays:
[1] = target: T1, SARS-CoV-2 PLpro (nsp3 1564–1878) (Severe acute respiratory syndrome coronavirus 2, UniProt P0DTD1); experiment: biochemical; parameters: FRET-quenched peptide (Pro3) cleavage by PLpro, 10 min pre-incubation, slope over 20 min, normalised to no-compound control; settings: high concentration screen, read-out: % of control remaining
[2] = target: T1, SARS-CoV-2 PLpro (nsp3 1564–1878); experiment: biochemical; parameters: FRET-quenched peptide (Pro3) cleavage by PLpro, 10 min pre-incubation, slope over 20 min, normalised to no-compound control; settings: low concentration screen, read-out: % of control remaining

CCCCN1C[C@H](O)[C@@H](O)[C@H](O)[C@H]1CO [Miglustat]
remaining activity at 3.75 µM ([1]; Well no.=2252): 95.8%
remaining activity at 1.25 µM ([2]; Well no.=2252): 97.5%

Cc1[nH]c(=O)c(C#N)cc1-c1ccncc1 [Milrinone]
remaining activity at 3.75 µM ([1]; Well no.=832): 101%
remaining activity at 3.75 µM ([1]; Well no.=2150): 97.1%
remaining activity at 1.25 µM ([2]; Well no.=832): 101%
remaining activity at 1.25 µM ([2]; Well no.=2150): 95.5%

CCCCCCCCCCCCCCCCOP(=O)([O-])OCC[N+](C)(C)C [Miltefosine]
remaining activity at 3.75 µM ([1]; Well no.=1767): 100%
remaining activity at 1.25 µM ([2]; Well no.=1767): 101%

CN(C)c1ccc(O)c2c1C[C@H]1C[C@H]3[C@H](N(C)C)C(O)=C(C(N)=O)C(=O)[C@@]3(O)C(O)=C1C2=O [Minocycline hydrochloride]
remaining activity at 3.75 µM ([1]; Well no.=797): 102%
remaining activity at 1.25 µM ([2]; Well no.=797): 104%

CN(C)c1ccc(O)c2c1C[C@H]1C[C@H]3[C@H](N(C)C)C(O)=C(C(N)=O)C(=O)[C@@]3(O)C(O)=C1C2=O [Minocycline]
remaining activity at 3.75 µM ([1]; Well no.=1995): 103%
remaining activity at 1.25 µM ([2]; Well no.=1995): 103%

Nc1cc(N2CCCCC2)nc(N)[n+]1[O-] [Minoxidil]
remaining activity at 3.75 µM ([1]; Well no.=1070): 96.2%
remaining activity at 3.75 µM ([1]; Well no.=1808): 90.5%
remaining activity at 1.25 µM ([2]; Well no.=1070): 93.8%
remaining activity at 1.25 µM ([2]; Well no.=1808): 89.4%

Nc1nc(CC(=O)Nc2ccc(CCNC[C@H](O)c3ccccc3)cc2)cs1 [Mirabegron (YM178)]
remaining activity at 3.75 µM ([1]; Well no.=4652): 97.1%
remaining activity at 1.25 µM ([2]; Well no.=4652): 99.3%

Nc1nc(CC(=O)Nc2ccc(CCNC[C@H](O)c3ccccc3)cc2)cs1 [Mirabegron]
remaining activity at 3.75 µM ([1]; Well no.=6273): 116%
remaining activity at 1.25 µM ([2]; Well no.=6273): 107%

O=C(O)[C@H]1CCCN1C(=O)CCCCC(=O)N1CCC[C@@H]1C(=O)O [Miridesap]
remaining activity at 3.75 µM ([1]; Well no.=8078): 97.4%
remaining activity at 1.25 µM ([2]; Well no.=8078): 100%

CN1CCN2c3ncccc3Cc3ccccc3C2C1 (centres unmarked) [Mirtazapine]
remaining activity at 3.75 µM ([1]; Well no.=6564): 106%
remaining activity at 1.25 µM ([2]; Well no.=6564): 106%

CO[C@H](C(=O)[C@@H](O)[C@@H](C)O)[C@@H]1Cc2cc3cc(O[C@H]4C[C@@H](O[C@@H]5C[C@@H](O)[C@H](O)[C@@H](C)O5)[C@H](O)[C@@H](C)O4)c(C)c(O)c3c(O)c2C(=O)[C@H]1O[C@H]1C[C@@H](O[C@@H]2C[C@@H](O)[C@@H](O[C@@H]3C[C@](C)(O)[C@H](O)[C@@H](C)O3)[C@@H](C)O2)[C@H](O)[C@@H](C)O1 [Mithramycin A]
remaining activity at 3.75 µM ([1]; Well no.=3411): 101%
remaining activity at 1.25 µM ([2]; Well no.=3411): 96.9%

O=C(O)[C@H](CC(=O)N1C[C@H]2CCCC[C@H]2C1)Cc1ccccc1 [Mitiglinide calcium]
remaining activity at 3.75 µM ([1]; Well no.=4888): 96.8%
remaining activity at 1.25 µM ([2]; Well no.=4888): 95.5%

CO[C@@]12[C@H](COC(N)=O)C3=C(C(=O)C(C)=C(N)C3=O)N1C[C@@H]1N[C@@H]12 [Mitomycin C]
remaining activity at 3.75 µM ([1]; Well no.=1672): 110%
remaining activity at 3.75 µM ([1]; Well no.=3563): 100%
remaining activity at 3.75 µM ([1]; Well no.=7364): 102%
remaining activity at 1.25 µM ([2]; Well no.=1672): 110%
remaining activity at 1.25 µM ([2]; Well no.=3563): 98.9%
remaining activity at 1.25 µM ([2]; Well no.=7364): 98.5%

O=C1c2c(O)ccc(O)c2C(=O)c2c(NCCNCCO)ccc(NCCNCCO)c21 [Mitoxantrone HCl]
remaining activity at 3.75 µM ([1]; Well no.=4904): 91.1%
remaining activity at 1.25 µM ([2]; Well no.=4904): 93.4%

O=C1c2c(O)ccc(O)c2C(=O)c2c(NCCNCCO)ccc(NCCNCCO)c21 [Mitoxantrone]
remaining activity at 3.75 µM ([1]; Well no.=1028): 101%
remaining activity at 3.75 µM ([1]; Well no.=1997): 103%
remaining activity at 1.25 µM ([2]; Well no.=1028): 100%
remaining activity at 1.25 µM ([2]; Well no.=1997): 104%

NC(=O)c1ncn([C@@H]2O[C@H](CO)[C@@H](O)[C@H]2O)c1O [Mizoribine]
remaining activity at 3.75 µM ([1]; Well no.=876): 107%
remaining activity at 1.25 µM ([2]; Well no.=876): 105%

O=C(NCCN1CCOCC1)c1ccc(Cl)cc1 [Moclobemide]
remaining activity at 3.75 µM ([1]; Well no.=4640): 98.5%
remaining activity at 1.25 µM ([2]; Well no.=4640): 99.1%

CCOC(=O)[C@H](CCc1ccccc1)N[C@@H](C)C(=O)N1Cc2cc(OC)c(OC)cc2C[C@H]1C(=O)O [Moexipril (hydrochloride)]
remaining activity at 3.75 µM ([1]; Well no.=8028): 97.8%
remaining activity at 1.25 µM ([2]; Well no.=8028): 98.4%

CCOC(=O)[C@H](CCc1ccccc1)N[C@@H](C)C(=O)N1Cc2cc(OC)c(OC)cc2C[C@H]1C(=O)O [Moexipril HCl]
remaining activity at 3.75 µM ([1]; Well no.=4760): 97.7%
remaining activity at 1.25 µM ([2]; Well no.=4760): 97.7%

CCOC(=O)CC(=O)N1CCSC1COc1ccccc1OC (centres unmarked) [Moguisteine]
remaining activity at 3.75 µM ([1]; Well no.=4931): 95.6%
remaining activity at 1.25 µM ([2]; Well no.=4931): 98.7%

O=c1c(-n2ccnn2)c[nH]n1-c1cc(N2CCOCC2)ncn1 [Molidustat (BAY 85-3934)]
remaining activity at 3.75 µM ([1]; Well no.=8542): 111%
remaining activity at 1.25 µM ([2]; Well no.=8542): 101%

CCc1c(C)[nH]c2c1C(=O)C(CN1CCOCC1)CC2 (centres unmarked) [Molindone (hydrochloride)]
remaining activity at 3.75 µM ([1]; Well no.=6905): 93.3%
remaining activity at 3.75 µM ([1]; Well no.=7928): 98.2%
remaining activity at 1.25 µM ([2]; Well no.=6905): 98.8%
remaining activity at 1.25 µM ([2]; Well no.=7928): 95.5%

CCOC(=O)[N-]c1c[n+](N2CCOCC2)no1 [Molsidomine]
remaining activity at 3.75 µM ([1]; Well no.=780): 104%
remaining activity at 3.75 µM ([1]; Well no.=1803): 96.1%
remaining activity at 1.25 µM ([2]; Well no.=780): 110%
remaining activity at 1.25 µM ([2]; Well no.=1803): 97.9%

C[C@@H]1C[C@H]2[C@@H]3CCC4=CC(=O)C=C[C@]4(C)[C@@]3(Cl)[C@@H](O)C[C@]2(C)[C@@]1(OC(=O)c1ccco1)C(=O)CCl [Mometasone furoate]
remaining activity at 3.75 µM ([1]; Well no.=4668): 103%
remaining activity at 3.75 µM ([1]; Well no.=6700): 89.6%
remaining activity at 1.25 µM ([2]; Well no.=4668): 103%
remaining activity at 1.25 µM ([2]; Well no.=6700): 92.3%

CCOC(=O)C1=C(C)NC(=S)NC1c1cccc(O)c1 (centres unmarked) [Monastrol]
remaining activity at 3.75 µM ([1]; Well no.=891): 106%
remaining activity at 1.25 µM ([2]; Well no.=891): 106%

CC[C@@]1([C@@H]2O[C@@H]([C@H]3O[C@@](O)(CO)[C@H](C)C[C@@H]3C)C[C@@H]2C)CC[C@H]([C@]2(C)CC[C@]3(C[C@H](O)[C@@H](C)[C@@H]([C@@H](C)[C@@H](OC)[C@H](C)C(=O)O)O3)O2)O1 [Monensin]
remaining activity at 3.75 µM ([1]; Well no.=3413): 99.5%
remaining activity at 1.25 µM ([2]; Well no.=3413): 94.8%

C[C@H]1C(=O)O[C@@H]2CCN3CC=C(COC(=O)[C@](C)(O)[C@]1(C)O)[C@H]23 [Monocrotaline]
remaining activity at 3.75 µM ([1]; Well no.=3777): 103%
remaining activity at 1.25 µM ([2]; Well no.=3777): 102%

CC(C)(O)c1ccccc1CC[C@@H](SCC1(CC(=O)O)CC1)c1cccc(/C=C/c2ccc3ccc(Cl)cc3n2)c1 [Montelukast (sodium)]
remaining activity at 3.75 µM ([1]; Well no.=6325): 98%
remaining activity at 1.25 µM ([2]; Well no.=6325): 105%

O=c1c(O)c(-c2ccc(O)cc2O)oc2cc(O)cc(O)c12 [Morin hydrate]
remaining activity at 3.75 µM ([1]; Well no.=5680): 99.5%
remaining activity at 1.25 µM ([2]; Well no.=5680): 99.9%
